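Step 1: Grow cells in 96-well plates. Step 2: Expose to compound for 48 hours at 5 concentrations. Step 3: Interpolate endpoints linearly; if unreached, use highest concentration. GI50: concentration for 50% inhibition of growth. TGI: total growth inhibition.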
Columns and labels:
Test in all cases: growth of human tumour cells (NCI), 48 h
SN12C renal = test system: SN12C renal
K-562 leukemia = test system: K-562 leukemia
HOP-92 NSCLC = test system: HOP-92 NSCLC
U251 CNS = test system: U251 CNS
SNB-75 CNS = test system: SNB-75 CNS
RXF 393 renal = test system: RXF 393 renal
HCT-116 colon = test system: HCT-116 colon
IGROV1 ovarian = test system: IGROV1 ovarian
HL-60(TB) leukemia = test system: HL-60(TB) leukemia
SK-OV-3 ovarian = test system: SK-OV-3 ovarian
OVCAR-3 ovarian = test system: OVCAR-3 ovarian
UACC-257 melanoma = test system: UACC-257 melanoma
HS 578T breast = test system: HS 578T breast
HT29 colon = test system: HT29 colon
UACC-62 melanoma = test system: UACC-62 melanoma
DU-145 prostate = test system: DU-145 prostate
CCRF-CEM leukemia = test system: CCRF-CEM leukemia
SK-MEL-2 melanoma = test system: SK-MEL-2 melanoma
786-0 renal = test system: 786-0 renal
OVCAR-5 ovarian = test system: OVCAR-5 ovarian
T-47D breast = test system: T-47D breast
CAKI-1 renal = test system: CAKI-1 renal
MALME-3M melanoma = test system: MALME-3M melanoma
LOX IMVI melanoma = test system: LOX IMVI melanoma
MCF7 breast = test system: MCF7 breast
NCI-H460 lung = test system: NCI-H460 lung
NCI/ADR-RES ovarian = test system: NCI/ADR-RES ovarian
PC-3 prostate = test system: PC-3 prostate
SF-539 CNS = test system: SF-539 CNS
COLO 205 colon = test system: COLO 205 colon
SK-MEL-28 melanoma = test system: SK-MEL-28 melanoma
NCI-H23 lung = test system: NCI-H23 lung
MDA-MB-435 = test system: MDA-MB-435
OVCAR-8 ovarian = test system: OVCAR-8 ovarian
RPMI-8226 leukemia = test system: RPMI-8226 leukemia
MDA-MB-231 breast = test system: MDA-MB-231 breast
SK-MEL-5 melanoma = test system: SK-MEL-5 melanoma
SR leukemia = test system: SR leukemia
HOP-62 NSCLC = test system: HOP-62 NSCLC
TK-10 renal = test system: TK-10 renal
BT-549 breast = test system: BT-549 breast
OVCAR-4 ovarian = test system: OVCAR-4 ovarian
NCI-H522 lung = test system: NCI-H522 lung
UO-31 renal = test system: UO-31 renal
SNB-19 CNS = test system: SNB-19 CNS
A549 NSCLC = test system: A549 NSCLC
MOLT-4 leukemia = test system: MOLT-4 leukemia
M14 melanoma = test system: M14 melanoma
SW-620 colon = test system: SW-620 colon
SF-268 CNS = test system: SF-268 CNS
SF-295 CNS = test system: SF-295 CNS
ACHN renal = test system: ACHN renal
NCI-H226 lung = test system: NCI-H226 lung
KM12 colon = test system: KM12 colon
EKVX NSCLC = test system: EKVX NSCLC
HCT-15 colon = test system: HCT-15 colon

Cc1ccc(NC2=N[C@]34CC(=O)CC[C@]3(C)[C@H]3CC[C@]5(C)C(=O)CC[C@H]5[C@@H]3C[C@@H]4S2)c(C)c1
GI50 (SN12C renal): 2.17 µM | TGI (SN12C renal): 5.07 µM | GI50 (K-562 leukemia): 2.86 µM | TGI (K-562 leukemia): > 100 µM | GI50 (HOP-92 NSCLC): 1.72 µM | TGI (HOP-92 NSCLC): 3.86 µM | GI50 (U251 CNS): 1.69 µM | TGI (U251 CNS): 3.21 µM | GI50 (SNB-75 CNS): 2.19 µM | TGI (SNB-75 CNS): 97.5 µM | GI50 (RXF 393 renal): 1.74 µM | TGI (RXF 393 renal): 3.23 µM | GI50 (HCT-116 colon): 1.49 µM | TGI (HCT-116 colon): 2.85 µM | GI50 (IGROV1 ovarian): 2.11 µM | TGI (IGROV1 ovarian): 5.14 µM | GI50 (HL-60(TB) leukemia): 2.47 µM | TGI (HL-60(TB) leukemia): 6.03 µM | GI50 (SK-OV-3 ovarian): 9.85 µM | TGI (SK-OV-3 ovarian): > 100 µM | GI50 (OVCAR-3 ovarian): 2.18 µM | TGI (OVCAR-3 ovarian): 5.03 µM | GI50 (UACC-257 melanoma): 3.7 µM | TGI (UACC-257 melanoma): > 100 µM | GI50 (HS 578T breast): 3.75 µM | TGI (HS 578T breast): > 100 µM | GI50 (HT29 colon): 2.55 µM | TGI (HT29 colon): 7.04 µM | GI50 (UACC-62 melanoma): 1.72 µM | TGI (UACC-62 melanoma): 3.94 µM | GI50 (DU-145 prostate): 2.04 µM | TGI (DU-145 prostate): 5.18 µM | GI50 (CCRF-CEM leukemia): 2.45 µM | TGI (CCRF-CEM leukemia): > 100 µM | GI50 (SK-MEL-2 melanoma): 2.19 µM | TGI (SK-MEL-2 melanoma): 4.74 µM | GI50 (786-0 renal): 1.62 µM | TGI (786-0 renal): 3.07 µM | GI50 (OVCAR-5 ovarian): 2.9 µM | TGI (OVCAR-5 ovarian): > 100 µM | GI50 (T-47D breast): 2.89 µM | TGI (T-47D breast): > 100 µM | GI50 (CAKI-1 renal): 2.83 µM | TGI (CAKI-1 renal): > 100 µM | GI50 (MALME-3M melanoma): 1.99 µM | TGI (MALME-3M melanoma): 5.55 µM | GI50 (LOX IMVI melanoma): 1.64 µM | TGI (LOX IMVI melanoma): 3.13 µM | GI50 (MCF7 breast): 2.31 µM | TGI (MCF7 breast): > 100 µM | GI50 (NCI-H460 lung): 2.7 µM | TGI (NCI-H460 lung): 8.39 µM | GI50 (NCI/ADR-RES ovarian): 2.91 µM | TGI (NCI/ADR-RES ovarian): > 100 µM | GI50 (PC-3 prostate): 1.86 µM | TGI (PC-3 prostate): 4.53 µM | GI50 (SF-539 CNS): 1.62 µM | TGI (SF-539 CNS): 3.08 µM | GI50 (COLO 205 colon): 2.5 µM | TGI (COLO 205 colon): 6.54 µM | GI50 (SK-MEL-28 melanoma): 2.31 µM | TGI (SK-MEL-28 melanoma): 6.08 µM | GI50 (NCI-H23 lung): 2.01 µM | TGI (NCI-H23 lung): 4.85 µM | GI50 (MDA-MB-435): 3.02 µM | TGI (MDA-MB-435): > 100 µM | GI50 (OVCAR-8 ovarian): 2.63 µM | TGI (OVCAR-8 ovarian): 7.26 µM | GI50 (RPMI-8226 leukemia): 2.43 µM | TGI (RPMI-8226 leukemia): 6.25 µM | GI50 (MDA-MB-231 breast): 2.33 µM | TGI (MDA-MB-231 breast): 7.92 µM | GI50 (SK-MEL-5 melanoma): 1.86 µM | TGI (SK-MEL-5 melanoma): 3.73 µM | GI50 (SR leukemia): 2.32 µM | TGI (SR leukemia): > 100 µM | GI50 (HOP-62 NSCLC): 2.43 µM | TGI (HOP-62 NSCLC): 6.92 µM | GI50 (TK-10 renal): 2.46 µM | TGI (TK-10 renal): 6.7 µM | GI50 (BT-549 breast): 1.49 µM | TGI (BT-549 breast): 2.94 µM | GI50 (OVCAR-4 ovarian): 3.83 µM | TGI (OVCAR-4 ovarian): > 100 µM | GI50 (NCI-H522 lung): 1.68 µM | TGI (NCI-H522 lung): 3.28 µM | GI50 (UO-31 renal): 1.34 µM | TGI (UO-31 renal): 2.86 µM | GI50 (SNB-19 CNS): 2.12 µM | TGI (SNB-19 CNS): 5.09 µM | GI50 (A549 NSCLC): 3.5 µM | TGI (A549 NSCLC): > 100 µM | GI50 (MOLT-4 leukemia): 2.49 µM | TGI (MOLT-4 leukemia): > 100 µM

CC1=NN(C(=O)c2ccc(Cl)cc2)C(=O)C1N=Nc1ccc(S(=O)(=O)Nc2ncccn2)cc1 (stereo not drawn)
TGI (M14 melanoma): > 100 µM | TGI (SN12C renal): > 100 µM | TGI (K-562 leukemia): > 100 µM | TGI (HOP-92 NSCLC): 2.07 µM | TGI (U251 CNS): > 100 µM | TGI (SW-620 colon): > 100 µM | TGI (SNB-75 CNS): > 100 µM | TGI (SF-268 CNS): > 100 µM | TGI (RXF 393 renal): > 100 µM | TGI (HCT-116 colon): > 100 µM | TGI (IGROV1 ovarian): > 100 µM | TGI (HL-60(TB) leukemia): > 100 µM | TGI (SK-OV-3 ovarian): > 100 µM | TGI (OVCAR-3 ovarian): > 100 µM | TGI (UACC-257 melanoma): > 100 µM | TGI (HS 578T breast): > 100 µM | TGI (SF-295 CNS): > 100 µM | TGI (HT29 colon): > 100 µM | TGI (UACC-62 melanoma): > 100 µM | TGI (DU-145 prostate): > 100 µM | TGI (SK-MEL-2 melanoma): > 100 µM | TGI (786-0 renal): > 100 µM | TGI (OVCAR-5 ovarian): > 100 µM | TGI (T-47D breast): > 100 µM | TGI (CAKI-1 renal): > 100 µM | TGI (MALME-3M melanoma): > 100 µM | TGI (LOX IMVI melanoma): > 100 µM | TGI (ACHN renal): > 100 µM | TGI (MCF7 breast): > 100 µM | TGI (NCI-H460 lung): > 100 µM | TGI (NCI/ADR-RES ovarian): > 100 µM | TGI (PC-3 prostate): 5.11 µM | TGI (SF-539 CNS): > 100 µM | TGI (COLO 205 colon): > 100 µM | TGI (SK-MEL-28 melanoma): > 100 µM | TGI (NCI-H23 lung): > 100 µM | TGI (MDA-MB-435): > 100 µM | TGI (OVCAR-8 ovarian): > 100 µM | TGI (MDA-MB-231 breast): > 100 µM | TGI (NCI-H226 lung): > 100 µM | TGI (SK-MEL-5 melanoma): > 100 µM | TGI (KM12 colon): > 100 µM | TGI (SR leukemia): > 100 µM | TGI (HOP-62 NSCLC): > 100 µM | TGI (TK-10 renal): > 100 µM | TGI (BT-549 breast): > 100 µM | TGI (OVCAR-4 ovarian): > 100 µM | TGI (NCI-H522 lung): > 100 µM | TGI (EKVX NSCLC): > 100 µM | TGI (UO-31 renal): > 100 µM | TGI (SNB-19 CNS): > 100 µM | TGI (A549 NSCLC): > 100 µM | TGI (HCT-15 colon): > 100 µM | TGI (MOLT-4 leukemia): > 100 µM

— PubChem BioAssay (NCI)
